Laboratory results reported in patent publication US8993593B2, “N-(4-(6-fluoro-3,4-dihydroisoquinolin-2(1H)-yl)-2,6-dimethylphenyl)-3,3-dimethylbutanamide as potassium channel modulators” (Valeant Pharmaceuticals International, priority 2006, dated 2015).
pEC50: −log10 of the molar value.

Legend:
[1] = test system: mouse maximal electroshock seizure (MES) model; assay: Maximal electroshock seizure (MES) test, mouse; format: in vivo; conditions: Mus musculus, po; murine MES model, dosed orally 2 hours prior to testing; read-out: ED50, inhibition of seizures
Excerpt: The MES testing protocol is based on procedures established at the National Institute of Neurological Disorders and Stroke in conjunction with the Anticonvulsant Screening Program (ASP) at the University of Utah (White, H. S., Woodhead, J. H., Wilcox, K. S., Stables, J. P., Kupferberg, H. J and Wolf, H. H. 2002. “General Principles: Discovery and Preclinical Development of Antiepileptic Drugs,” in Antiepileptic Drugs, 5th Edition, R. H. Levy, ed.; R. H. Mattson, B. S. Meldrum, and E. Perucca. Philadelphia, Lippincott Williams & Wilkins.), The goal of the test rapid identification and characterization of the in vivo anticonvulsant activity of any compounds that have been shown active in PC-12 cellular based Rb^+ efflux assay.
Adult male CF-I albino mice (18-25 g, Charles River Laboratories) are exclusively used for in-house MES screen of compounds. Male Sprague-Dawley albino rats (100-125 g, Charles River Laboratories) are also used to test anticonvulsant compounds. Variability of test outcomes is reduced by using animals of the same sex, age, and weight. Animals are permitted to rest and recover from transit for at least 48 hr prior to experimentation. Animals are used for AED testing only once. In some instances, the animals may be anesthetized prior to blood collection and/or whole brain extraction for pharmacokinetic assay. All animals are maintained and handled as outlined in standard animal care guidelines.
In the experiments, testing compounds are prepared as suspensions in 0.5% methyl cellulose (Sigma, Cat #M0512, Viscosity 4000 cP at 20° C.) in water, regardless of solubility. Dry powder compounds are initially ground with a glass rod in a test tube in several drops of methyl cellulose to create a paste and to break down any large chunks. After several minutes of grinding, the volume of the suspension is increased to the final concentration desired. The suspension is then sonicated using a Branson sonicator model 3510 in a water bath at room temperature for 15 minutes. Compound suspensions are further vortexed prior to animal dosing. In some of the cases, DMSO is used to initially solubilize compounds in small volumes and then this solution is added to the 0.5% methyl cellulose solution, in order to create more even and less aggregated compound suspensions. The final concentration of DMSO is 3.75%, an amount with no apparent toxicity or neuroprotective effects in our usual rotarod and MES tests. Methyl cellulose/DMSO compound suspensions are identically prepared for intraperitoneally (i.p.) to mice or orally (p.o.) to rat dosing.
Initially the animals are weighed with an electronic scale and then marked. Data recording sheets are generated for each compound assessment. Mice or rats are dosed with the compound suspension at 0.01 mL/g of body weight. The typical injection volume range is between 180-250 μl for mice. […] Rats are p.o. dosed using a flexible feeding tube, typically starting at a compound dose of 5 mg/kg.
A Rodent Electroconvulsive Stimulator (Model 200, Hamit-Darvin-Freesh, Snow Canyon Clinic, Ivins, Utah) is used for MES testing. A 60-Hz alternating current (50 mA for mice; 150 mA for rats) is delivered for 0.2 seconds through corneal electrodes to the mice. A drop of 0.5% tetracaine (Sigma, Cat. #T-7508) solution is placed on the eye prior to current delivery. The electrodes are subsequently placed gently onto the eyes of the animal and the electrical shock is initiated by triggering through a foot-pedal activator. The animals are restrained by hand and gently released as the shock is delivered and the seizure commences. Animals are monitored for hind limb tonic extension as the end point for this test. Current delivery is recorded as a measure of overall seizure-induction potential. Electrical current delivery can vary from approximately 30-55 mA (mice) or 90-160 mA (rats) depending on impedance in the animal and quality of the current delivery (ie. correct placement of the electrodes on the cornea). […]

[2] = Open field test (acute toxicity); conditions: Sprague-Dawley, in vivo, oral, rat, read-out: TD50, motor impairment
Excerpt: Before MES test, compound treated rats are visually observed for acute toxicity signs for approximately one minute in the open field test. Here, rats are gently placed into a plexiglass enclosure and are monitored for behavior consistent with toxicity including ataxia, trembling, hypoactivity (including failure to seek the walls), hypersensitivity, lack of exploratory behavior and lack of avoidance of the open area. […] Motor impairment, as judged by this test was not observed in the rat model and generated a TD50 value of greater than 5 mg/kg.

KCNQ2 channels = target: T1, KCNQ2 channels (Homo sapiens, UniProt O43526); assay: Potassium ion efflux, KCNQ2 channels expressed in CHO cells; format: cell-based
T1 construct: expressed in transfected cells; host or cells: CHO cells
T1 sequence (O43526 whole entry): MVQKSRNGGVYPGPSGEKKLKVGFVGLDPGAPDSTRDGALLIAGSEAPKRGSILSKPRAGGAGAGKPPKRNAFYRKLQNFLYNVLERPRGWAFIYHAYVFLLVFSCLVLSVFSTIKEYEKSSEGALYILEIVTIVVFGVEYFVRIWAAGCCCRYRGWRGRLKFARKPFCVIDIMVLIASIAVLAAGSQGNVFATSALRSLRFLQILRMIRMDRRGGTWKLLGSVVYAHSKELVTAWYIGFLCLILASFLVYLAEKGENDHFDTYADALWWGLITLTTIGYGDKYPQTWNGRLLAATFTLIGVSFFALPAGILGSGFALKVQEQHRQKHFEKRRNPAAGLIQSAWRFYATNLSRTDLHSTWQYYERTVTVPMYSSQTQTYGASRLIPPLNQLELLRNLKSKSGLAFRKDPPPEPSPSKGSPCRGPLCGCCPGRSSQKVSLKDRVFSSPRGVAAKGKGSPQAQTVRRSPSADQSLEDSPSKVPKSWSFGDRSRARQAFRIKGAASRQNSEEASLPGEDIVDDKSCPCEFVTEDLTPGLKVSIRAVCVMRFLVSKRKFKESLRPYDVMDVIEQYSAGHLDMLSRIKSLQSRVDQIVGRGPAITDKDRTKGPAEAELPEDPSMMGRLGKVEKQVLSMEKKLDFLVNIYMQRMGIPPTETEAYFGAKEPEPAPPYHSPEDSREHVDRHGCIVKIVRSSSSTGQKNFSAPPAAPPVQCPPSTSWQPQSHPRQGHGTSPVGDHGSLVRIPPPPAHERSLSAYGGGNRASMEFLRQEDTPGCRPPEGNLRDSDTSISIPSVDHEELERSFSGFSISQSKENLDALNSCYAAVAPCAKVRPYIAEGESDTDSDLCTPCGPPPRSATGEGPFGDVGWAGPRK
Experimental: Using natively expressed M-currents present in differentiated pheochromocytoma (PC-12) cells and CHO cells transfected with KCNQ2 and hERG potassium channels, the in vitro activity of compound A on potassium ion efflux was determined.
The EC50 values for retigabine and compound A on the activation of KCNQ2 channels expressed in CHO cells were determined on three separate occasions in triplicate.

hERG = hERG (Homo sapiens, UniProt Q12809); assay: in vitro
Chain of hERG (Q12809 whole entry): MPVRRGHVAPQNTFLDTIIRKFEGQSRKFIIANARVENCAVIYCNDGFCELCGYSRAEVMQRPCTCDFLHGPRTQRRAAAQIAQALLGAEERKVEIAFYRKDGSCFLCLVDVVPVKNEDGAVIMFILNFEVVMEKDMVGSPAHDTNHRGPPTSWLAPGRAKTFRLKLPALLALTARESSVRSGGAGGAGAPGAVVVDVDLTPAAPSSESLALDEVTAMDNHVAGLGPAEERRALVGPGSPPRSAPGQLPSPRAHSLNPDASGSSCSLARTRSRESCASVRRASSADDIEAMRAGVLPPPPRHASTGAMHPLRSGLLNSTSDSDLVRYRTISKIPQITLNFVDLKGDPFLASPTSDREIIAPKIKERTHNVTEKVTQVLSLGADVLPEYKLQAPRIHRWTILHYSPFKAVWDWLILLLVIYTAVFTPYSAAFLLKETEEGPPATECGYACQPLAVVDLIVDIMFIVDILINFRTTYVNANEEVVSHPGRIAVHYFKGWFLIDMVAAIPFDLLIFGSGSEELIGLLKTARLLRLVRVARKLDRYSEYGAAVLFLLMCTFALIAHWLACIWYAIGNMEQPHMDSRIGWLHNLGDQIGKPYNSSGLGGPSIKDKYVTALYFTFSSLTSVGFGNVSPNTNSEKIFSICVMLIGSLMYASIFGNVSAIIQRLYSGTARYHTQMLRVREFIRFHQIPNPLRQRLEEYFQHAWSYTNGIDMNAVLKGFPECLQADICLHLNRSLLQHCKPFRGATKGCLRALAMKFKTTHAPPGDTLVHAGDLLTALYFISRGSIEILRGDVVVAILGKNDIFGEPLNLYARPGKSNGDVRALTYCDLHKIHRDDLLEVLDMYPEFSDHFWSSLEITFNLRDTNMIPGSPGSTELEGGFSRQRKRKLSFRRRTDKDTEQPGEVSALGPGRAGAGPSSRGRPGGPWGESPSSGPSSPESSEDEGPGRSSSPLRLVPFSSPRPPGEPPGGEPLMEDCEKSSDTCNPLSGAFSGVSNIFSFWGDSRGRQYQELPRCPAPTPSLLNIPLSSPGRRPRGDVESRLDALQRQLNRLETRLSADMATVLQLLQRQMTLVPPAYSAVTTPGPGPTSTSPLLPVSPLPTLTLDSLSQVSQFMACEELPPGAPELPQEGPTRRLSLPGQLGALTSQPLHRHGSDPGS

Compound: Cc1cc(N2CCc3cc(F)ccc3C2)cc(C)c1NC(=O)CC(C)(C)C [compound A, N-[4-(6-fluoro-3,4-dihydro-1H-isoquinolin-2-yl)-2,6-dimethylphenyl]-3,3-dimethyl butanamide]
- ED50 [1]: 2.2 mg/kg
- TD50 at 1 min [2]: > 5 mg/kg
- pEC50 (KCNQ2 channels): 7.96
- inhibition at 30 µM (hERG): -0.1%
